Experimental data: publication PMC2652713, “Molecular Blocking of CD23 Supports Its Role in the Pathogenesis of Arthritis” (PLoS ONE, 2009)

Tests used:
[1] = system: CD23; experiment: CD23 western blot on CD23+ B-cell line extract; type: binding, human; details: CD23+ B cell line extract (50 µg protein), blot pre-incubated with p30A 10 µg/ml (methods: 10, 20 and 40 µg/ml, 2 h)
Procedure: (§1) Figure 1 Specific blockade of CD23 reactivity by p30A. Flow cytometry analysis showing the inhibition of (A) anti-CD23-FITC (20 µg/ml) or (B) IgE (10 µg/ml)/anti-IgE-FITC (1 µg/ml) binding to CD23^+ human PBL-derived macrophages (red lines) or following their pre-incubation with p30A peptides (10 µg/ml) (blue lines). (C) CD23 western blot was performed on total protein extract from à CD23^+ B-cell line. The detection with CD23-McAb followed the pre-incubation of the blot with or without p30A (10 µg/ml). Similar protein quantity (50 µg) was used for each western blot condition.
Total cellular proteins were isolated from CD23^+, ADAM B-cell line in cell lysis buffer (10 mM Tris pH 8.0, 150 mM NaCl, 5 mM EDTA, 1% Triton X-100, 0.05% SDS, 10 mM Sodium Fluoride, 1 mM Sodium Orthovanadate, 5 µM Molibdic Acid) and a mixture of protease inhibitors (all from Sigma Aldrich, Saint Quentin Fallavier, France). Protein concentration was determined using the Bradford assay (Bio Rad, Hemel Hempstead, UK). Protein samples (50 µg total protein) were subjected to SDS-PAGE using a 12% resolving gel. […] Immunoreactive bands (CD23 and Bcl2) were detected using the FluorChem 8800 (Alpha Innotech, San Leandro, USA) and semi-quantified by densitometry using AlphaEase FC (Alpha Innotech).

[2] = system: human CD23+ monocyte-derived macrophages; experiment: Inflammatory gene transcription array in CD23-activated macrophages of healthy donors; type: cell-based
Procedure: Figure 3 Inhibition of inflammatory gene transcription by p30A in CD23-stimulated macrophages. Human CD23^+ monocyte-derived macrophages were incubated with cross-linking CD23-McAb (20 µg/ml) alone or following 1 h pre-incubation with 10 µg/ml of p30A. Controls, activated cells with/without p30A pre-incubation are figured. IL-1β, TNF-α and actin (ACT) mRNA location are indicated by arrows. Shown is one representative experiment out of three. TEXT PRINTED IN THE PICTURE: p30A: Expressed Genes: 28 / 114 (Activated + p30A)
(§2) Monocytes or macrophages were activated through CD23 pathway: while monocytes/macrophages from RA patients express CD23, monocytes from healthy donors must be pre-activated to express surface CD23 as described. This pre-activation was obtained by incubation of healthy monocytes with recombinant human IL-4 (20 ng/ml) during 48 h at 37°C; After washing, all cell populations were tested by flow cytometry for their surface CD23 expression (>80% CD23^+) and then incubated in the presence of cross-linking CD23-MAb (clones 135 or DM2, IgG1k, 20 µg/ml) during 48–72 h, or IgE and anti-IgE as described, [17]. When indicated, peptides were added to the cells 2 h prior to their activation. Cells supernatants were then analyzed for their nitric oxide content (see below) and for the presence of cytokines: levels of TNF-α and IL-6 were determined in duplicates for each sample by a specific ELISA (R&D, Paris, France) while levels of IL-1β, IL-8 and IL-10 was determined using FlowCytomix Human Th1/Th2 Kit as recommended (Bender Medsystems, Vienna, Austria).
Following cultures, total RNA was extracted using RNeasy kit (Qiagen, Hilden, Germany). Synthesis, purification and hybridization of biotin-labeled cRNA (6 µg) to custom array membranes were performed according to manufacturer's recommendations (Oligo GEArray® Human Inflammatory Cytokines and Receptors Microarray, ref OHS-011, Superarray Bioscience, Frederick, MD). After local background subtraction, average signal intensity from duplicate spots was compared to values obtained for housekeeping genes using AlphaImager HP automatic image capture software (Alpha-Innotec, San Leandro, CA). For each gene, modulation was defined as the relative expression value for stimulated vs. control sample.

[3] = system: CD23
[4] = system: human CD23; experiment: Flow cytometry, inhibition of IgE/anti-IgE-FITC binding to human CD23+ macrophages; details: p30A 10 µg/ml pre-incubation, IgE 10 µg/ml, anti-IgE-FITC 1 µg/ml
Procedure: as §1

[5] = system: peritoneal macrophages of AIA rats; experiment: Ex vivo cytokine release from peritoneal macrophages of treated AIA rats, ELISA; type: in vivo, rat, Female Lewis; details: cells collected 50 days post-immunization, 48 h culture, 4 rats
Procedure: AIA rats were treated either after (AIA+p30A) or before (p30A+AIA) the onset of symptoms. Treatment consisted of p30A (10 mg/rat) or hydrocortisone (HC, 30 mg/rat). Rat peritoneal macrophages were collected following 50 days post-immunization, washed and re-incubated in culture medium alone. Cell supernatants were collected 48 h later and cytokine levels were quantified. Macrophages from healthy rats were also incubated in similar conditions. Values are mean±s.d. of cells from 4 different rats.
Adjuvant arthritis was induced in six week-old animals by subcutaneous injection at the base of the tail of 300 µl containing 1.8 mg of inactivated Mycobacterium butyricum (Difco Laboratories, Detroit, MI) diluted in emulsion of 8 ml Vaseline, 1 ml polysorbate 80, and 1 ml PBS (Phosphate Buffer Saline, Eurobio). Rats were boosted one week later following the same procedure. Observation was conducted for up to 50 days following immunization for clinical signs of arthritis. Rats were divided in different groups of 8 rats. Groups were treated with five injections (every 2 days) of either p30A (10, 50 or 100 mg in a PBS solution), pCtl, hydrocortisone (Sigma Aldrich) or PBS solution. Injections were initiated two days after the appearance of first arthritic symptoms (therapeutic) or on the first day of immunization (preventive). […] Rats were sacrificed 50 days after AIA induction. Peritoneal macrophages were collected and incubated in culture medium alone for 48 h. Quantification of TNF-α and IL-1β in rat cell supernatants was performed using appropriate ELISA kits and according to manufacturer's recommendations (Biosource, Montrouge, France).

[6] = system: human CD23+ macrophages; experiment: Cell mortality and apoptosis with p30A versus medium alone; type: cell-based
[7] = system: healthy human PBL-derived macrophages; experiment: Inflammatory mediator release from healthy human PBL-derived macrophages; type: cell-based
Procedure: Figure 4 Inhibition of inflammatory mediator generation from healthy human PBL-derived macrophages by p30A. Decreased levels of TNF-α (A), IL-6 (B), IL-1β, IL-8 and IL-10 (C) were detected in CD23-activated cells after incubation with p30A. […] Values are mean±s.d. of cells from 5 (IL-6, TNF-α) or 2 (IL-1β, IL-8, IL-10) different donors.
as §2

[8] = treatment before onset of symptoms (p30A+AIA, 10 mg/rat)
[9] = FlowCytomix, mean±s.d., 2 donors

## FHENWPS [p30A]
[1]
  block of detection of CD23 protein by CD23-McAb: block
[2]; CD23-activated macrophages of healthy donors
  inhibition of expression of inflammatory mRNAs: inhibits the expression of most of the above mRNAs
[2]; activated cells + p30A
  expressed mRNAs: Chemokine Receptors: CCR1, CCR5, CCR7, CXCR4
  expressed mRNAs: Chemokines Other subfamily members: BCL6, BLR1, C3
  expressed mRNAs: Chemokines Subfamily A (Cys-Cys): CCL15, CCL17, CCL18, CCL19, CCL3, CCL4, CCL5
  expressed mRNAs: Interleukins and their Receptors: IL10RA, IL10RB, IL11RA, IL17R, IL1R1, IL1R2, IL2RA, IL2RG, IL6R
  expressed mRNAs: Other related genes: LTB4R, MIF
  expressed mRNAs: TNF Ligands and Receptors: LTA (LT- α), LTB (LT-β), TNFRSF1B (TNFR2)
[2]; activated cells + p30A (10 µg/ml, 1 h pre-incubation; CD23-McAb 20 µg/ml), comparators: non activated cells 14, activated cells 53
  number of expressed genes detected/114: 28
[3]
  side agonistic effect: absence of side agonistic effect
[4]
  block of IgE/anti-IgE-FITC binding: block, on the one hand, the binding of IgE/anti-IgE-FITC to human CD23^+ macrophages
[5]; treatment after onset of symptoms (AIA+p30A, 10 mg/rat)
  TNFα release ex vivo, therapeutic: dramatically reduced both IL-1β and TNFα levels
[5]; treatment after onset of symptoms (AIA+p30A, 10 mg/rat; HC 30 mg/rat)
  IL-1β release ex vivo, therapeutic: dramatically reduced both IL-1β and TNFα levels
[5]; [8]
  IL-1β release ex vivo, preventive: dramatically reduced both IL-1β and TNFα levels
  TNFα release ex vivo, preventive: dramatically reduced both IL-1β and TNFα levels
[6]; in the presence of p30A compared to cells in medium alone, no significant variations
  cell mortality and apoptosis: < 5%
[6]; monocytes/macrophages
  cell toxicity: without cell toxicity
[7]; ELISA, mean±s.d., 5 donors
  IL-6 level: Decreased
  TNF-α level: Decreased
[7]; [9]
  IL-1β level: Decreased
  IL-8 level: Decreased
  IL-10 level: Decreased
[7]; TNF-α, IL-6, IL-1β, IL-8 and IL-10 in supernatants
  inhibition of CD23-mediated inflammatory mediators at protein level: significantly inhibited all CD23-mediated activation of inflammatory mediators at protein levels
